From patent EP0178946A2, “1-(Aminoalkyl)-alpha, alpha-diaryl pyrrolidine-piperidine- and homopiperidine- acetamides and acetonitriles” (A.H. ROBINS COMPANY, INCORPORATED, priority 1984, dated 1986)

System: Cardiac Arrhythmia in Dogs
Test: Ouabain induced arrhythmias: correction of existing ventricular arrhythmia by i.v. infusion
Assay type: in vivo, adult mongrel dogs
Settings: Canis lupus familiaris, iv, 0.5 h; Ouabain-Induced arrhythmia model; dogs under barbiturate anaesthesia; infusion into a femoral vein at 1 mg/kg/min; active if reversion to sinus rhythm maintained for at least 30 minutes; tested as difumarate hemihydrate salt, dose computed as free base; read-out: Correcting Dose mg/kg, i.v. (computed as free base)
Description: Correction of existing cardiac arrhythmias of ventricular origin is carried out on (1) adult mongrel dogs which are under barbiturate anaesthesia during the test. A Grass Model 7 Polygraph was used for recording femoral arterial blood pressure (Statham P23AC Transducer) and the electro- cardiagram (Grass 7P4 Preamplifier). Ouabain was given intravenously in an initial dose of 40 µg/kg and in a second dose of 20 µg/kg 30 minutes after the first dose and in subsequent doses of 10 µg/kg which were repeated at 15 min. intervals as required for producing cardiac arrhythmias that persisted for at least 15 minutes. When the arrhythmias were established, the test compounds were administered by infusion (Harvard Model 942 Infusion Pump) into a femoral vein at a rate of 1 mg/kg/min. Concentration of compound was adjusted according to the weight of the dog to allow a volume infusion of 1 ml/min. The compound was considered to be active as antiarrhythmic agent if reversion to sinus rhythm occurred which was maintained for at least 30 minutes.
Data obtained for one preferred compound, namely 1-[2-(dimethylamino)ethyl]α,α-diphenyl-3-pyrrolidine- acetamide as represented by its defumarate hemihydrate salt are shown in Table 1.

SMILES: CN(C)CCN1CCC(C(C(N)=O)(c2ccccc2)c2ccccc2)C1 (stereo not drawn) [Example 5, 1-2-(Dimethylamino)ethyl]-α,α-diphenyl-3-pyrrolidine-acetamide difumarate, hemihydrate]
- minimal effective dose: 5 mg/kg
